The text below walks through data of ChEMBL document CHEMBL4483862, “Open-source discovery of chemical leads for next-generation chemoprotective antimalarials” (2018).

The test system of the experiment is Plasmodium berghei. In words: Luciferase/luciferin-expressing antifolate-resistant parasites were used to infect a culture of HepG2 cells that were pre-incubated with compounds. Infected hepatocytes emit light due to the luciferase reaction. Assay results are presented as the percent inhibition of light emission compared to control. […]. In kind it is functional. Particulars: sporozoite; for IC90: read-out: LUCIFERASE INFECTION ASSAY - IC90.

[1] abbreviates: read-out: LUCIFERASE INFECTION ASSAY - IC50.

A value given as a limit tells only on which side of the number the result lay.

One may read the IC50 as the concentration needed to halve the response being measured. The term IC90 denotes the concentration at which the effect reaches the 90% level. Consider `Oc1cccc(-c2cnc3ccc(-c4cccc(C(F)(F)F)c4)nn23)c1`, for which the IC90 is greater than 10 µM. For the same compound, where the note is “PBLUC_HILL_SLOPE 3.46, PBLUC_R_SQUARED 0.251, read-out: LUCIFERASE INFECTION ASSAY - IC50”, the IC50 is 6.43 µM.

Take `CCOc1ccc(C(=O)Nc2ccc(N(CC)CC)cc2)cc1Br`: the IC90 is 3.6 µM. Also, the half-inhibitory concentration (IC50) (HEPG2TOX_HILL_SLOPE 11.9, HEPG2TOX_R_SQUARED 0.281, PBLUC_HILL_SLOPE 11.4, PBLUC_R_SQUARED 0.34, read-out: LUCIFERASE INFECTION ASSAY - IC50) worked out at 2.97 µM.

Regarding `Nc1ccc(-c2cn3c(-c4cccc(Cl)c4)cnc3cn2)cn1`, the 90% effect concentration (IC90) was greater than 10.3 µM. Moreover, the IC50 (PBLUC_HILL_SLOPE 1.1, PBLUC_R_SQUARED 0.459, read-out: LUCIFERASE INFECTION ASSAY - IC50) worked out at 5.57 µM.

On to `N#CCCn1cc(/C=N/Nc2nc3ccccc3s2)c(-c2ccc(F)cc2)n1`, for which the IC90 is greater than 10 µM. Further, the IC50 under setting [1] was greater than 10 µM.

For `FC(F)(F)c1ccnc(N2CCN(c3ncnc4scc(-c5ccccc5)c34)CC2)n1`, the IC90 is greater than 7.46 µM. For the same compound, under setting [1], the IC50 is greater than 7.46 µM.

In the case of `CN(C)CCNC(=O)c1ccc(-c2cc(-c3cc4ccccc4s3)cnc2N)cc1`, the IC90 is greater than 7.92 µM. The 50% inhibitory concentration (IC50) under setting [1] was greater than 7.92 µM.

As to `COc1ccc(C(N)=O)cc1NC(=O)NCc1ccc(N2CCCCCC2)nc1`, the IC90 was greater than 10 µM. Further, the IC50 under setting [1] was greater than 10 µM.

Take `Nc1c(C(=O)c2ccc(Cl)cc2)sc(NCc2ccco2)c1C(=O)Nc1cc(Cl)ccc1Cl`: the IC90 came to 4.4 µM. For the same compound, the IC50 (FFLUC_HILL_SLOPE 2.13, FFLUC_R_SQUARED 0.528, HEPG2TOX_HILL_SLOPE 16.1, HEPG2TOX_R_SQUARED 0.784, PBLUC_HILL_SLOPE 2.08, PBLUC_R_SQUARED 0.686, read-out: LUCIFERASE INFECTION ASSAY - IC50) came out at 1.53 µM.

Take `COc1c(Cl)cc(C(=O)Nc2nonc2-c2ccc(F)cc2)cc1Cl`: the IC90 turned out to be 2.81 µM. Also, the half-inhibitory concentration (IC50) (HEPG2TOX_HILL_SLOPE 3.32, HEPG2TOX_R_SQUARED 0.957, PBLUC_HILL_SLOPE 18.3, PBLUC_R_SQUARED 0.283, read-out: LUCIFERASE INFECTION ASSAY - IC50) was 2.49 µM.

Consider `COc1ncccc1CNC(=O)C1=COCCO1`, for which the IC90 is greater than 10 µM. Besides, the IC50 (PBLUC_HILL_SLOPE 1.77, PBLUC_R_SQUARED 0.251, read-out: LUCIFERASE INFECTION ASSAY - IC50) stood at 5.83 µM.

For `Nc1ncc(-c2ccc(CO)cc2)cc1-c1ccc(F)c(Cl)c1`, the IC90 was greater than 10 µM. Further, the 50% inhibitory concentration (IC50) (PBLUC_HILL_SLOPE 12.5, PBLUC_R_SQUARED 0.497, read-out: LUCIFERASE INFECTION ASSAY - IC50) came out at 9.14 µM.

On to `N#Cc1c(F)ccc(NC(=O)Nc2ccc(Cl)cc2)c1F`, for which the IC90 is greater than 10.7 µM. Further, where the note is “PBLUC_HILL_SLOPE 14.7, PBLUC_R_SQUARED 0.232, read-out: LUCIFERASE INFECTION ASSAY - IC50”, the IC50 stood at 10.6 µM.

Regarding `CCN(Cc1ccccc1)c1ccc(/C=N/Nc2ccc(C)c(Cl)c2)cc1`, the IC90 was greater than 10 µM. In addition, under “FFLUC_HILL_SLOPE 2.55, FFLUC_R_SQUARED 0.818, read-out: LUCIFERASE INFECTION ASSAY - IC50”, the half-inhibitory concentration (IC50) was greater than 10 µM.

With `CCCc1ccc(C(=O)C(C)Sc2nnc(-c3ccc(OC(F)F)cc3)o2)cc1` (stereo unspecified), the IC90 is greater than 10 µM. Besides, the IC50 under setting [1] was greater than 10 µM.

`CC(Oc1ccc2ccc(=O)oc2c1)C(=O)N1CCc2ccccc21` (stereo unspecified): the IC90 is 6.27 µM. In addition, the half-inhibitory concentration (IC50) (PBLUC_HILL_SLOPE 3.92, PBLUC_R_SQUARED 0.713, read-out: LUCIFERASE INFECTION ASSAY - IC50) came out at 3.58 µM.

On to `Cc1[nH]c2ccc(C(=O)Nc3ccc(-n4cnnn4)cc3)cc2c1C`, for which the concentration for an effect of 90% (IC90) is greater than 10 µM. Also, the IC50 under setting [1] was greater than 10 µM.

For the compound `CC(N)c1csc(NC(=O)c2cccnc2Oc2ccccc2)n1` (stereo unspecified), the IC90 came out at 5.22 µM. In addition, the IC50 under setting [1] came out at 3.09 µM.

Turning to `Cc1nn(-c2ccccc2)c(N2CCCCC2)c1/C=N/Nc1ccc(C(F)(F)F)cn1`, the 90% effect concentration (IC90) is greater than 10 µM. In addition, the IC50 under setting [1] was greater than 10 µM.

For the compound `Cc1cccc(-c2nc3ccnc(Nc4ccc(C(C)C)cc4)c3[nH]2)c1`, the IC90 was greater than 10 µM. Also, the IC50 (HEPG2TOX_HILL_SLOPE 8.42, HEPG2TOX_R_SQUARED 0.9, PBLUC_HILL_SLOPE 13.4, PBLUC_R_SQUARED 0.519, read-out: LUCIFERASE INFECTION ASSAY - IC50) was found to be 8.58 µM.

Regarding `N#CC(C#N)=NNc1ccc(F)cc1F`, the IC90 was greater than 16 µM. Besides, the IC50 (HEPG2TOX_HILL_SLOPE 0.862, HEPG2TOX_R_SQUARED 0.0964, read-out: LUCIFERASE INFECTION ASSAY - IC50) is greater than 16 µM.

For `COc1ccccc1-c1nnc(SC(C(=O)Nc2cc(Cl)cc(Cl)c2)c2ccccc2)o1` (stereo unspecified), the concentration for an effect of 90% (IC90) was found to be 7.61 µM. The IC50 (HEPG2TOX_HILL_SLOPE 8.26, HEPG2TOX_R_SQUARED 0.825, PBLUC_HILL_SLOPE 4.24, PBLUC_R_SQUARED 0.374, read-out: LUCIFERASE INFECTION ASSAY - IC50) was 4.54 µM.

`CC1C(=O)N(Cc2ncc(-c3ccccc3)o2)C(=O)N1c1ccc(F)cc1` (stereo unspecified): the IC90 was greater than 10 µM. The IC50 under setting [1] is 9.72 µM.

Turning to `Clc1ccccc1-c1cnc2sc(NCc3cccs3)nn12`, the IC90 was greater than 9.51 µM. For the same compound, the IC50 (FFLUC_HILL_SLOPE 0.509, FFLUC_R_SQUARED 0.232, read-out: LUCIFERASE INFECTION ASSAY - IC50) is greater than 9.51 µM.

`CC(C)(C)c1ccc(S(=O)(=O)Nc2ccc(O)c(Sc3nc4ccccc4s3)c2)cc1`: the IC90 was greater than 10 µM. The IC50 (HEPG2TOX_HILL_SLOPE 0.314, HEPG2TOX_R_SQUARED 0.616, read-out: LUCIFERASE INFECTION ASSAY - IC50) is greater than 10 µM.

On to `CSc1nc2c(c(=O)n(C)c(=O)n2C)n1Cc1cccc(C(F)(F)F)c1`, for which the IC90 was greater than 8.59 µM. Besides, for the setting “HEPG2TOX_HILL_SLOPE 6.71, HEPG2TOX_R_SQUARED 0.561, read-out: LUCIFERASE INFECTION ASSAY - IC50”, the IC50 is greater than 8.59 µM.

As for `COc1ccc(-c2cc3ncnc(NCc4ccc(N5CCN(C)CC5)nc4)c3s2)cc1`, the IC90 stood at 4.79 µM. Moreover, the IC50 (HEPG2TOX_HILL_SLOPE 1.93, HEPG2TOX_R_SQUARED 0.825, PBLUC_HILL_SLOPE 2.26, PBLUC_R_SQUARED 0.8, read-out: LUCIFERASE INFECTION ASSAY - IC50) is 1.81 µM.

As for `CC(C)c1ccccc1NC(=O)Nc1nc(C(N)Cc2ccc(Cl)cc2)cs1` (stereo unspecified), the IC90 was greater than 7.95 µM. Further, the IC50 (PBLUC_HILL_SLOPE 4.88, PBLUC_R_SQUARED 0.323, read-out: LUCIFERASE INFECTION ASSAY - IC50) was found to be 5.13 µM.

As for `COc1ccccc1NS(=O)(=O)c1ccc2nc(-c3ccncc3)[nH]c2c1`, the IC90 is greater than 10 µM. Further, the IC50 under setting [1] was greater than 10 µM.

As for `CCC(CC)CN1CCC2(CC1)C(=O)N(Cc1ccc(OC)cc1)C(=O)N2CC(C)C`, the IC90 is greater than 7.68 µM. Also, the half-maximal inhibitory concentration (IC50) under setting [1] was greater than 7.68 µM.

Turning to `O=C(OCc1cn2cc(Cl)ccc2n1)c1cc([N+](=O)[O-])ccc1N1CCCC1`, the IC90 is 1.23 µM. The IC50 (HEPG2TOX_HILL_SLOPE 1.77, HEPG2TOX_R_SQUARED 0.925, PBLUC_HILL_SLOPE 9.51, PBLUC_R_SQUARED 0.622, read-out: LUCIFERASE INFECTION ASSAY - IC50) is 0.976 µM.

`Cc1ccccc1-c1noc(-c2cc(-c3cccs3)[nH]n2)n1`: the IC90 is greater than 10 µM. Moreover, the IC50 (HEPG2TOX_HILL_SLOPE 8.85, HEPG2TOX_R_SQUARED 0.0358, read-out: LUCIFERASE INFECTION ASSAY - IC50) was greater than 10 µM.

As to `C=CCn1c(C)cc(C(=O)COC(=O)C(O)(c2ccccc2)c2ccccc2)c1C`, the IC90 turned out to be 5.78 µM. In addition, the half-inhibitory concentration (IC50) (PBLUC_HILL_SLOPE 1.92, PBLUC_R_SQUARED 0.565, read-out: LUCIFERASE INFECTION ASSAY - IC50) came out at 1.84 µM.

With `CS(=O)(=O)Nc1ccc(-c2csc(NC(=O)c3sc4sccc4c3Cl)n2)cc1`, the IC90 stood at 9.72 µM. In addition, where the note is “HEPG2TOX_HILL_SLOPE 8.43, HEPG2TOX_R_SQUARED 0.307, PBLUC_HILL_SLOPE 11.2, PBLUC_R_SQUARED 0.136, read-out: LUCIFERASE INFECTION ASSAY - IC50”, the IC50 amounted to 7.99 µM.

Take `CC(C)c1ccc(NC2=NN=C(c3cccs3)CS2)cc1`: the IC90 was greater than 10 µM. Further, the IC50 (HEPG2TOX_HILL_SLOPE 7.09, HEPG2TOX_R_SQUARED 0.364, read-out: LUCIFERASE INFECTION ASSAY - IC50) is greater than 10 µM.

In the case of `Cc1nc2n(C)c3ccccc3[n+]2c(C)c1C`, the IC90 is greater than 10 µM. Also, for the setting “HEPG2TOX_HILL_SLOPE 3.01, HEPG2TOX_R_SQUARED 0.767, PBLUC_HILL_SLOPE 4.79, PBLUC_R_SQUARED 0.113, read-out: LUCIFERASE INFECTION ASSAY - IC50”, the half-maximal inhibitory concentration (IC50) turned out to be 6.7 µM.

`Cc1ccccc1Sc1ccc(NC(=O)c2ccc(F)cc2)cc1C#N`: the IC90 is greater than 9.11 µM. For the same compound, under setting [1], the IC50 was greater than 9.11 µM.

With `COc1ncccc1C(=O)Nc1ccccc1Cl`, the IC90 was greater than 12.6 µM. In addition, under “HEPG2TOX_HILL_SLOPE 9.95, HEPG2TOX_R_SQUARED 0.955, PBLUC_HILL_SLOPE 2.98, PBLUC_R_SQUARED 0.38, read-out: LUCIFERASE INFECTION ASSAY - IC50”, the IC50 worked out at 12.2 µM.

Take `CNC(=O)c1ccc(CN(Cc2ccco2)c2nc(C(F)(F)F)nc3ccccc23)cc1`: the IC90 came out at 3.56 µM. For the same compound, the IC50 (HEPG2TOX_HILL_SLOPE 6.45, HEPG2TOX_R_SQUARED 0.103, PBLUC_HILL_SLOPE 3.77, PBLUC_R_SQUARED 0.847, read-out: LUCIFERASE INFECTION ASSAY - IC50) was determined as 1.99 µM.
